Reference: patent publication US12091718B2, “Genetically encoded biosensors for detection of polyketides” (priority 2016, dated 2024)

Tests used:
[1] = biological target: wild-type MphR (MphR(A), macrolide biosensor transcription factor), SEQ ID NO: 2 (gene SEQ ID NO: 1, 28) (Escherichia coli, UniProt Q9EVJ6); test: cell-based; details: for activation of GFP expression under control of WT MphR: result in words
Text: (§1) The sensitivity of biosensors often requires tailoring to meet specific needs. […] A library of MphR gene mutations and variants was created by error-prone PCR (epPCR).
Molecular Biosystems. […] Previous literature reports various induction ranges for MphR-based biosensors depending on the plasmid construct.
Three and five site saturation mutagenesis libraries of the MphR gene that targeted residues of the ligand binding domain were generated using the Quikchange Multi Site-Directed mutagenesis kit (Agilent) and designated QCMS3 and QCMS5, respectively. A third library was generated via error-prone PCR (epPCR) with an average of two amino acid mutations per library clone. Libraries were transformed into E. coli TOP10 cells with plasmid pJZ12 (See FIG. 16 and sequence below) containing genes MphA and mrx and subjected to an initial round of negative sorting in the absence of added ligand via Fluorescence Activated Cell Sorting (FACS) to eliminate variants that are constitutively expressing GFP.
In Table 1, Hill functions were used to derive biosensor transfer functions. K1/2 is the inducer concentration at half maximal induction. Cooperativity is derived from the Hill function to indicate cooperative ligand binding between protein monomers of the MphR dimer. […] The linear range of detection is the linear portion of the dose-response curve with a slope R^2=0.95 or higher.

[2] = biological target: MphR variant S106F (pikB1, D3; SEQ ID NO: 10, 38) (Escherichia coli, UniProt Q9EVJ6, S106F); test: cell-based; format: cell-based; details: for times more sensitive vs. WT: Table 11
Text: as §1
To test this, the aglycone 6-deoxyerythronolide B (6dEB) was produced via an engineered E. coli strain and purified by flash chromatography. […] To extend this to other systems, the ability of MphR was examined to detect macrolide antibiotics from S. venezuelae.
The ability of the MphR clone “PikB1” to detect a Solithromycin biosynthetic intermediate (see structure below) was determined.

[3] = biological target: T1, MphR variant A16T/T154M/M155K (M2D6; SEQ ID NO: 16, 44) (Escherichia coli, UniProt Q9EVJ6, A16T/M155K/T154M); test: MphR-GFP biosensor dose-response, M2D6; format: cell-based; details: result in words
T1 construct: GFP under PmphR as reporter
Text: In many cases, it is necessary to determine the presence and concentration of a given polyketide in the presence of other structurally related molecules. Accordingly, the selectivity of MphR requires tailoring towards target molecules.

[4] = biological target: T2, MphR variant A16T/T154M/M155K with E7 RBS mutation (M2D6-E7RBS) (Escherichia coli, UniProt Q9EVJ6, A16T/M155K/T154M); test: MphR-GFP biosensor dose-response, M2D6-E7RBS; format: cell-based
T2 construct: E. coli GFP biosensor

MphR variant R122T = MphR variant R122T (Escherichia coli, UniProt Q9EVJ6, R122T); test: MphR-GFP biosensor dose-response, R122T; format: cell-based; details: for Hill coefficient: Table 8
[5] = biological target: T3, wild-type MphR with mutated RBS CTGAGGT (smRBS1G6) (Escherichia coli, UniProt Q9EVJ6); test: MphR-GFP biosensor dose-response, smRBS1G6; format: cell-based; details: Table 4
T3 construct: GFP reporter in E. coli
Text: as §1

[6] = biological target: T4, wild-type MphR with RBS mutations A1T/G2T/A3C (smRBS1A1, RBS TTCAGGT; SEQ ID NO: 53) (Escherichia coli, UniProt Q9EVJ6); test: MphR-GFP biosensor dose-response, smRBS1A1; format: cell-based
T4 construct: GFP reporter in E. coli
Text: as §1

[7] = biological target: T5, MphR variant T27A/M59E (QCMS5D7; SEQ ID NO: 9, 37) (Escherichia coli, UniProt Q9EVJ6, M59E/T17A); test: MphR-GFP biosensor dose-response, clone T27A/M59E; format: cell-based; details: Table 1
T5 construct: E. coli TOP10 GFP biosensor
Text: (§2) In Table 1, Hill functions were used to derive biosensor transfer functions. K1/2 is the inducer concentration at half maximal induction. Cooperativity is derived from the Hill function to indicate cooperative ligand binding between protein monomers of the MphR dimer. Dynamic range is the GFP maximal response minus the minimum GFP response, which in all cases was the response with no ligand. The linear range of detection is the linear portion of the dose-response curve with a slope R^2=0.95 or higher.

[8] = test system: MphR variant T27A/M59E (QCMS5D7; SEQ ID NO: 9, 37); test: MphR-GFP biosensor dose-response, clone T27A/M59E; format: cell-based, Escherichia coli; details: Table 11
Text: as §2

[9] = biological target: T6, MphR variant T17R (QCMS3D6; SEQ ID NO: 6, 34) (Escherichia coli, UniProt Q9EVJ6, T17R); test: MphR-GFP biosensor dose-response, clone T17R; format: cell-based
T6 construct: E. coli TOP10 GFP biosensor
Text: as §2

[10] = biological target: T7, wild-type MphR with mutated RBS AAAGGTT (smRBS2E1; SEQ ID NO: 55) (Escherichia coli, UniProt Q9EVJ6); test: MphR-GFP biosensor dose-response, smRBS2E1; format: cell-based; details: Table 4
T7 construct: GFP reporter in E. coli
Text: as §1

[11] = biological target: T8, MphR variant T27G/Q65M (QCMS5B4; SEQ ID NO: 8, 36) (Escherichia coli, UniProt Q9EVJ6, Q65M/T17G); test: MphR-GFP biosensor dose-response, clone T27G/Q65M; format: cell-based
T8 construct: E. coli TOP10 cells with plasmid pJZ12
Text: as §2

[12] = test system: MphR variant G76C (clone A3/epA3; nt A1G in RBS, aa G76C; SEQ ID NO: 3, 29); test: MphR-GFP biosensor dose-response, clone G76C (A3); format: cell-based, Escherichia coli; details: Table 11
Text: (§3) K1/2 is the inducer concentration at half maximal induction. Cooperativity is derived from the Hill function to indicate cooperative ligand binding between protein monomers of the MphR dimer. Dynamic range is the GFP maximal response minus the minimum GFP response, which in all cases was the response with no ligand. The linear range of detection is the linear portion of the dose-response curve with a slope R^2=0.95 or higher.

[13] = biological target: T9, MphR variant G76C (clone A3/epA3; nt A1G in RBS, aa G76C; SEQ ID NO: 3, 29) (Escherichia coli, UniProt Q9EVJ6, G76C); test: MphR-GFP biosensor dose-response, clone G76C (A3); format: cell-based; details: Table 1
T9 construct: pMLGFP-derived plasmid, E. coli TOP10 GFP biosensor
Text: as §3

[14] = biological target: T10, MphR variant V90I (clone E7/epE7; nt A4T in RBS, aa V90I; SEQ ID NO: 4, 30) (Escherichia coli, UniProt Q9EVJ6, V90I); test: MphR-GFP biosensor dose-response, clone V90I (E7); format: cell-based; details: Table 1
T10 construct: E. coli TOP10 with pJZ12
Text: as §3

[15] = test system: MphR variant V90I (clone E7/epE7; nt A4T in RBS, aa V90I; SEQ ID NO: 4, 30); test: MphR-GFP biosensor dose-response, clone V90I (E7); format: cell-based, Escherichia coli; details: Table 11
Text: as §3

[16] = biological target: T11, wild-type MphR with E7 ribosome binding site mutation only (WT E7-RBS; SEQ ID NO: 32) (Escherichia coli, UniProt Q9EVJ6); test: cell-based
T11 construct: GFP reporter in E. coli
Text: as §1
To confirm this, new versions of A3 and E7 were constructed that either only included the RBS mutations or the amino acids for each clone.

CC[C@H]1OC(=O)[C@H](C)[C@@H](O)[C@H](C)[C@@H](O)[C@@H](C)C[C@@H](C)C(=O)[C@H](C)[C@@H](O)[C@H]1C [Compound 6dEB, 6-deoxyerythronolide B]
activation of GFP expression under control of WT MphR [1]: failed to activate GFP expression

CC[C@H]1OC(=O)[C@H](C)[C@@H](O)[C@@H](C)C[C@@H](C)C(=O)/C=C/[C@H]1C [Compound 10-DML, 10-deoxymethynolide]
activation of GFP expression under control of WT MphR [1]: neither WT or D3 MphR is activated | activation ([2]; result in words, FIG. 4C): neither WT or D3 MphR is activated

CC[C@H]1OC(=O)[C@H](C)[C@@H](O[C@H]2C[C@@](C)(OC)[C@@H](O)[C@H](C)O2)[C@H](C)[C@@H](O[C@@H]2O[C@H](C)C[C@H](N(C)C)[C@H]2O)[C@](C)(OC)C[C@@H](C)C(=O)/C(C)=C/[C@]1(C)O [Solithromycin biosynthetic intermediate]
EC50 ([1]; K1/2, FIG. 20): 70.9 µM | detects the intermediate at concentrations as low as ([2]; FIG. 20): 0.1 µM | times more sensitive vs. WT [2]: 52 times more

CC[C@H]1OC(=O)[C@H](C)[C@@H](O[C@@H]2O[C@H](C)C[C@H](N(C)C)[C@H]2O)[C@@H](C)C[C@@H](C)C(=O)/C=C/[C@H]1C [YC-17]
EC50 ([1]; K1/2, Table 12): 19.6 ± 0.6 µM | EC50 [2]: 0.49 ± 0.05 µM | times more sensitive vs. WT [2]: 40 times more

CC[C@H]1OC(=O)[C@H](C)[C@@H](O[C@H]2C[C@@](C)(OC)[C@@H](O)[C@H](C)O2)[C@H](C)[C@@H](O[C@@H]2O[C@H](C)C[C@H](N(C)C)[C@H]2O)[C@](C)(O)C[C@@H](C)CN(C)[C@H](C)[C@@H](O)[C@]1(C)O [azithromycin]
activation [3]: little to no activation | EC50 ([1]; K1/2, Table 6): 0.6 ± 0.02 µM | EC50 ([1]; K1/2, Table 7): 0.6 µM

CC[C@H]1OC(=O)[C@H](C)[C@@H](O[C@H]2C[C@@](C)(OC)[C@@H](O)[C@H](C)O2)[C@H](C)[C@@H](O[C@@H]2O[C@H](C)C[C@H](N(C)C)[C@H]2O)[C@](C)(OC)C[C@@H](C)C(=O)[C@H](C)[C@@H](O)[C@]1(C)O [clarithromycin, 6-O-methylerythromycin]
EC50 [4]: 12.7 µM | EC50 (MphR variant R122T): 24.2 µM | Hill coefficient (MphR variant R122T): 3.03

CC[C@H]1OC(=O)[C@H](C)[C@@H](O[C@H]2C[C@@](C)(OC)[C@@H](O)[C@H](C)O2)[C@H](C)[C@@H](O[C@@H]2O[C@H](C)C[C@H](N(C)C)[C@H]2O)[C@](C)(O)C[C@@H](C)C(=O)[C@H](C)[C@@H](O)[C@]1(C)O [erythromycin A]
Hillc [5]: 5.4 ± 1.2 | Hillc ([6]; Table 4): 1.7 ± 0.1 | times more sensitive vs. WT ([6]; Table 11): 9.9 times more | Cooperativity [7]: 2.59 ± 0.04 | times more sensitive vs. WT [8]: 2.0 times more | Cooperativity ([9]; Table 1): 3.16 ± 0.13 | times more sensitive vs. WT ([9]; Table 11): 2.4 times more | Hillc [10]: 3.9 ± 0.5 | enhanced sensitivity [4]: 2 fold | Cooperativity ([1]; Table 1, derived from the Hill function): 4.44 ± 1.52 | Hillc ([1]; Table 4): 3.6 ± 0.3 | Hill coefficient ([1]; Table 8): 3.52 | Cooperativity ([1]; Table 9): 3.39 | activation of GFP expression under control of WT MphR [1]: good activator | Cooperativity ([11]; Table 1): 2.92 ± 0.17 | times more sensitive vs. WT ([11]; Table 11): 1.5 times more | times more sensitive vs. WT [12]: 3.6 times more | Cooperativity [13]: 1.80 ± 0.01 | Cooperativity [14]: 2.84 ± 0.42 | times more sensitive vs. WT [15]: 3.0 times more | Hill coefficient (MphR variant R122T): 2.39

CC[C@H]1OC(=O)[C@H](C)[C@@H](O[C@H]2C[C@@](C)(OC)[C@@H](O)[C@H](C)O2)[C@H](C)[C@@H](O[C@@H]2O[C@H](C)C[C@H](N(C)C)[C@H]2O)[C@](C)(O)C[C@@H](C)C(=O)[C@H](C)[C@@H](O)[C@H]1C [erythromycin B]
EC50 ([1]; K1/2, Table 9): 1.72 µM | Cooperativity ([1]; Table 9): 1.99 | activation of GFP expression under control of WT MphR [1]: activate MphR-WT in a nearly identical manner

CC[C@H]1OC(=O)[C@H](C)[C@@H](O[C@H]2C[C@@](C)(O)[C@@H](O)[C@H](C)O2)[C@H](C)[C@@H](O[C@@H]2O[C@H](C)C[C@H](N(C)C)[C@H]2O)[C@](C)(O)C[C@@H](C)C(=O)[C@H](C)[C@@H](O)[C@]1(C)O [erythromycin C]
activation of GFP expression under control of WT MphR [1]: activate MphR-WT in a nearly identical manner

CC[C@H]1OC(=O)[C@H](C)C(=O)[C@H](C)[C@@H](O[C@@H]2O[C@H](C)C[C@H](N(C)C)[C@H]2O)[C@@H](C)C[C@@H](C)C(=O)/C=C/[C@H]1C [narbomycin]
fold induction at 5 µM ([1]; read-out: Activation ratio (5 uM/0 uM)): 4

CC[C@H]1OC(=O)[C@H](C)C(=O)[C@H](C)[C@@H](O[C@@H]2O[C@H](C)C[C@H](N(C)C)[C@H]2O)[C@@H](C)C[C@@H](C)C(=O)/C=C/[C@]1(C)O [pikromycin]
EC50 [6]: 48 ± 5 µM | sensitivity improved, compared to the wild-type MphR [6]: 2 fold | EC50 ([1]; K1/2, Table 5): 97 ± 2 µM | EC50 ([1]; K1/2, Table 14): 96.6 ± 2.7 µM | EC50 [2]: 0.81 ± 0.02 µM | times more sensitive vs. WT [2]: 118 times more | EC50 [16]: 50 ± 20 µM

CC[C@H]1OC(=O)[C@H](C)[C@@H](O[C@H]2C[C@@](C)(OC)[C@@H](O)[C@H](C)O2)[C@H](C)[C@@H](O[C@@H]2O[C@H](C)C[C@H](N(C)C)[C@H]2O)[C@](C)(O)C[C@@H](C)/C(=N\OCOCCOC)[C@H](C)[C@@H](O)[C@]1(C)O [roxithromycin]
activation [3]: little to no activation | EC50 ([1]; K1/2, Table 6): 67.2 ± 3.41 µM | EC50 ([1]; K1/2, Table 7): 74.1 µM
